Measurements: ChEMBL document CHEMBL1155057, “Studies toward the discovery of the next generation of antidepressants. Part 6: Dual 5-HT1A receptor and serotonin transporter affinity within a class of arylpiperazinyl-cyclohexyl indole derivatives” (Bioorg Med Chem, 2008)

What was measured:
[1] = target: T1, 5-hydroxytryptamine receptor 1A (Homo sapiens) (UniProt P08908); experiment: Intrinsic activity at human 5HT1A receptor expressed in CHO cells by GTPgammaS binding assay relative to serotonin; assay type: functional, cell-based
T1 sequence (whole entry): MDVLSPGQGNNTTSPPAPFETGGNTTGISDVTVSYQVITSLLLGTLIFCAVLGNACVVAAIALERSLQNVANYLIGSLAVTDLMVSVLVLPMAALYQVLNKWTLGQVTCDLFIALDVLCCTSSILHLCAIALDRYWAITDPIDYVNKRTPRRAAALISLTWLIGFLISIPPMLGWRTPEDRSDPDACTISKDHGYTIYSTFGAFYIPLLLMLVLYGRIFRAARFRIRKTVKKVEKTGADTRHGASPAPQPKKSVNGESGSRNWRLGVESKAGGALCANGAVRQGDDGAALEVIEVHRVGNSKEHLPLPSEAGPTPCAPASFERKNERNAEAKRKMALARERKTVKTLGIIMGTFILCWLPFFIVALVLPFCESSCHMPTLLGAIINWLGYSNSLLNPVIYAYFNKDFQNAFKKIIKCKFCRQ

[2] = target: Sodium-dependent serotonin transporter (Rattus norvegicus, UniProt P31652)
Sequence of Sodium-dependent serotonin transporter (P31652 whole entry): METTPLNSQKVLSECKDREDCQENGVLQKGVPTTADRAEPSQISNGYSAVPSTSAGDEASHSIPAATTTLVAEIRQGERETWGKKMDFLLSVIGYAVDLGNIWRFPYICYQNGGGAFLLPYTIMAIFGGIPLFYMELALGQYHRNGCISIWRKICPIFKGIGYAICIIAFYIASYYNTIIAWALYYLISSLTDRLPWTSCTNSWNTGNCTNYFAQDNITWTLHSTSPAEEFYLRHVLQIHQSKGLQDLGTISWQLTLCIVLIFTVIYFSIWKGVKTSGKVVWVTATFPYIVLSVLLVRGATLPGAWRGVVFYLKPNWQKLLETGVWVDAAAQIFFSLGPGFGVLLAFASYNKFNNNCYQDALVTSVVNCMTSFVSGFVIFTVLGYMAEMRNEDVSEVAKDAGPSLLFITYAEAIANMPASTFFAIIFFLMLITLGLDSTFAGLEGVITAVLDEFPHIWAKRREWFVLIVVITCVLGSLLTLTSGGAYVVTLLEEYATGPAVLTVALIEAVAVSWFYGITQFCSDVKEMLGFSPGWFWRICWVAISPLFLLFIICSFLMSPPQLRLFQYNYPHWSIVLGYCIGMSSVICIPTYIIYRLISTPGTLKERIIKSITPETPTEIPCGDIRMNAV

[3] = target: T2, 5-hydroxytryptamine receptor 1A (Homo sapiens, UniProt P08908); experiment: biochemical
T2 sequence (P08908 whole entry): T1 sequence (whole entry)

[4] = target: T1, 5-hydroxytryptamine receptor 1A (Homo sapiens); experiment: Displacement of [3H]8-OH-DPAT from human 5HT1A receptor expressed in CHO cells at 1 uM; assay type: cell-based
[5] = target: Sodium-dependent serotonin transporter (Rattus norvegicus) (UniProt P31652); experiment: Displacement of [3H]paroxetine from rat cortical 5HTT reuptake site at 1 uM
Sequence of Sodium-dependent serotonin transporter (Rattus norvegicus) (P31652 whole entry): as above

[6] = target: Sodium-dependent serotonin transporter (Rattus norvegicus) (UniProt P31652); experiment: Displacement of [3H]paroxetine from rat cortical 5HTT reuptake site at 100 nM
Rattus norvegicus = species on record: Rattus norvegicus; conditions: 100 nM
Description: Displacement of 3H]paroxetine from rat cortical alpha1 adrenergic receptor at 100 nM

| SMILES | Emax [1] | Ki [2] | Ki [3] | other results |
| --- | --- | --- | --- | --- |
| FC(F)(F)c1nc2c(N3CCN([C@H]4CC[C@@H](c5c[nH]c6ccccc65)CC4)CC3)cccc2[nH]1 | 0% | 105 nM | 16.1 nM |  |
| COc1ccc2[nH]cc([C@H]3CC[C@H](N4CCN(c5cccc6[nH]ccc56)CC4)CC3)c2c1 |  |  | 2.9 nM | inhibition [5]: 45% |
| Fc1cccc2[nH]cc([C@H]3CC[C@H](N4CCN(c5cccc6[nH]ccc56)CC4)CC3)c12 |  |  |  | inhibition [6]: 0% |
| C1=Nc2cccc(N3CCN([C@H]4CC[C@H](c5c[nH]c6ncccc65)CC4)CC3)c2C1 |  |  | 7.8 nM | inhibition [6]: 18% |
| Fc1ccc2c(c1)[nH]cc2[C@H]1CC[C@@H](N2CCN(c3cccc4[nH]ccc34)CC2)CC1 | 0% |  |  |  |
| FC(F)(F)c1nc2c(N3CCN([C@H]4CC[C@H](c5c[nH]c6ccccc65)CC4)CC3)cccc2[nH]1 | 29% | 75 nM | 3.6 nM |  |
| CC(C)n1cc([C@H]2CC[C@@H](N3CCN(c4cccc5[nH]ccc45)CC3)CC2)c2cc(C#N)ccc21 |  | 38.5 nM |  |  |
| Fc1ccc2c(c1)[nH]cc2[C@H]1CC[C@H](N2CCN(c3cccc4[nH]ccc34)CC2)CC1 |  |  | 5.4 nM |  |
| Clc1ccc2[nH]cc([C@H]3CC[C@@H](N4CCN(c5cccc6[nH]ccc56)CC4)CC3)c2c1 |  |  |  | inhibition [6]: 28% |
| Cn1cc([C@H]2CC[C@@H](N3CCN(c4cccc5[nH]ccc45)CC3)CC2)c2cc(F)ccc21 |  | 11.6 nM | 124 nM |  |
| CCCn1cc([C@H]2CC[C@H](N3CCN(c4cccc5[nH]ccc45)CC3)CC2)c2cc(C#N)ccc21 |  |  |  | inhibition [4]: 46% |
| Fc1cccc2[nH]cc([C@H]3CC[C@@H](N4CCN(c5cccc6[nH]ccc56)CC4)CC3)c12 |  |  |  | inhibition [6]: 27% |
| C1=Nc2cccc(N3CCN([C@H]4CC[C@@H](c5c[nH]c6ncccc65)CC4)CC3)c2C1 |  |  | 15.8 nM | inhibition [6]: 0% |
| CC(C)n1cc([C@H]2CC[C@H](N3CCN(c4cccc5[nH]ccc45)CC3)CC2)c2cc(C#N)ccc21 |  |  |  | inhibition [6]: 16%; inhibition [4]: 46% |
| Clc1ccc2[nH]cc([C@H]3CC[C@H](N4CCN(c5cccc6[nH]ccc56)CC4)CC3)c2c1 |  |  |  | inhibition [5]: 20% |
| Cn1cc([C@H]2CC[C@H](N3CCN(c4cccc5[nH]ccc45)CC3)CC2)c2cc(F)ccc21 |  | 67.5 nM | 90 nM |  |
| Cc1[nH]c2ccccc2c1[C@H]1CC[C@@H](N2CCN(c3cccc4[nH]ccc34)CC2)CC1 |  |  |  | inhibition [6]: 4% |
| c1cc(N2CCN([C@H]3CC[C@@H](c4c[nH]c5ccccc54)CC3)CC2)c2cc[nH]c2c1 | 0% |  |  |  |
| COc1ccc2[nH]cc([C@H]3CC[C@@H](N4CCN(c5cccc6[nH]ccc56)CC4)CC3)c2c1 |  |  |  | inhibition [6]: 25% |
| Fc1ccc2[nH]cc([C@H]3CC[C@H](N4CCN(c5cccc6[nH]ccc56)CC4)CC3)c2c1 |  |  |  | inhibition (Rattus norvegicus): 16% |
| Cc1[nH]c2ccccc2c1[C@H]1CC[C@H](N2CCN(c3cccc4[nH]ccc34)CC2)CC1 |  |  |  | inhibition [6]: 12% |
| c1cc(N2CCN([C@H]3CC[C@H](c4c[nH]c5ccccc54)CC3)CC2)c2cc[nH]c2c1 |  |  | 5.3 nM |  |

Second part, led by results:

| Emax [1] | Ki [2] | Ki [3] | SMILES | other results |
| --- | --- | --- | --- | --- |
| 34% | 640 nM |  | Fc1ccc2[nH]cc([C@H]3CC[C@@H](N4CCN(c5cccc6ccccc56)CC4)CC3)c2c1 | inhibition [4]: 46% |
| 3% | 4.9 nM | 6.2 nM | N#Cc1ccc2[nH]cc([C@H]3CC[C@H](N4CCN(c5cccc6ncccc56)CC4)CC3)c2c1 |  |
| 20% |  |  | Fc1ccc2[nH]cc([C@H]3CC[C@@H](N4CCN(c5cccc6cccnc56)CC4)CC3)c2c1 |  |
| 71% |  | 42.6 nM | Fc1ccc2[nH]cc([C@H]3CC[C@H](N4CCN(c5cccc6ccccc56)CC4)CC3)c2c1 | inhibition [5]: 38% |
| 0% | 75 nM | 1.7 nM | c1cc(N2CCN([C@H]3CC[C@H](c4c[nH]c5ccccc54)CC3)CC2)c2nc[nH]c2c1 |  |
| 0% | 13 nM | 7.9 nM | c1cc(N2CCN([C@H]3CC[C@@H](c4c[nH]c5ccccc54)CC3)CC2)c2nc[nH]c2c1 |  |
| 11% | 8.5 nM |  | N#Cc1ccc2[nH]cc([C@H]3CC[C@H](N4CCN(c5cccc6[nH]ccc56)CC4)CC3)c2c1 |  |
| 0% | 13.8 nM | 97.2 nM | Fc1ccc2[nH]cc([C@H]3CC[C@@H](N4CCN(c5cccc6ncccc56)CC4)CC3)c2c1 |  |
| 11% | 13.6 nM | 9.1 nM | N#Cc1ccc2[nH]cc([C@H]3CC[C@H](N4CCN(c5cccc6nccnc56)CC4)CC3)c2c1 |  |
| 0% | 3.5 nM | 58.1 nM | N#Cc1ccc2[nH]cc([C@H]3CC[C@@H](N4CCN(c5cccc6ncccc56)CC4)CC3)c2c1 |  |
| 0% | 20 nM |  | N#Cc1ccc2[nH]cc([C@H]3CC[C@H](N4CCN(c5cccc6cccnc56)CC4)CC3)c2c1 |  |
| 66% |  |  | Fc1ccc2[nH]cc([C@H]3CC[C@H](N4CCN(c5cccc6cccnc56)CC4)CC3)c2c1 |  |
| 0% | 1.6 nM |  | N#Cc1ccc2[nH]cc([C@H]3CC[C@@H](N4CCN(c5cccc6[nH]ccc56)CC4)CC3)c2c1 |  |
| 23% | 1.3 nM |  | N#Cc1ccc2[nH]cc([C@H]3CC[C@@H](N4CCN(c5cccc6cccnc56)CC4)CC3)c2c1 |  |
| 0% | 115 nM | 3 nM | Cc1nc2c(N3CCN([C@H]4CC[C@H](c5c[nH]c6ccccc65)CC4)CC3)cccc2[nH]1 |  |
| 0% | 73 nM | 8.3 nM | Fc1ccc2[nH]cc([C@H]3CC[C@H](N4CCN(c5cccc6ncccc56)CC4)CC3)c2c1 |  |
| 0% | 1.1 nM | 156 nM | N#Cc1ccc2[nH]cc([C@H]3CC[C@@H](N4CCN(c5cccc6nccnc56)CC4)CC3)c2c1 |  |
| 0% | 61 nM | 10.7 nM | Cc1nc2c(N3CCN([C@H]4CC[C@@H](c5c[nH]c6ccccc65)CC4)CC3)cccc2[nH]1 |  |
